Experimental data reported in patent US6613534B2, “MAP-2 as a determinant of metastatic potential” (Wake Forest University Health Sciences, priority 2001, dated 2003).
Entries after “also recorded” stand apart in the source; their conditions may differ. Where two headings read alike, the source gives them in different places.

Key:
[1] = test system: cultured human metastatic melanoma cells; conditions: cited from earlier work
[2] = test system: TYRP1 mRNA in SK-MEL-19 melanoma cells; experiment: Northern blot of total RNA for TYRP1 expression (FIG. 8); type: cell-based, human
[3] = test system: mouse erythroleukemia cells (MEL) and a variety of human tumor cells; conditions: cited from earlier work
[4] = test system: TYRP1 in cultured human metastatic melanoma cells; conditions: cited from earlier work
[5] = test system: MAP-2 mRNA in SK-MEL-19 melanoma cells; experiment: Northern blot of total RNA for MAP-2 expression, cAMP and protein kinase C pathway agents (FIG. 8); type: cell-based, human
[6] = test system: MAP-2 cDNA (approximately 450 bp fragment) in SK-MEL-19 melanoma cells; experiment: Differential display RT-PCR of control and HMBA-treated cells; type: cell-based, human; conditions: 5 mM HMBA-treated vs control SK-MEL-19 cells
Protocol: Differential display was used to characterize changes in gene expression associated with growth inhibition in melanoma cells. For differential display (DD), RT-PCR was performed using a GeneAmp System 2400 (Perkin-Elmer Corp., Foster City, Calif.). DD was performed using the DeltaTM Differential Display Kit (Clontech Laboratories Inc.). […] Diluted cDNA (1:12.5 and 1:50) was used to amplify DD-PCR product in the presence of [α-^33P]dATP (Dupont NEN, Boston, Mass.) using a random combination of arbitrary primers and oligo (dT) primers. PCR products were resolved by electrophoresis in a 5% polyacrylamide, 8 M urea sequencing gel. The gel was dried and exposed to Biomax MS film (Kodak, Rochester, N.Y.). Bands differentially expressed between untreated and treated samples were cut, eluted, re-amplified, sequenced by the ABI 377 DNA Sequencer (Perkin-Elmer Corp., Foster City, Calif.). Differential display analysis was performed using RNA obtained from control and HMBA-treated SK-MEL-19 melanoma cells. Primer […] NO: 4) and oligo dT primer […] U32996; nucleotides 1931-2384). […] Cell Biol., 106:779-783 (1988)).

[7] = test system: SK-MEL-19 human metastatic melanoma cell line; experiment: Cell morphology of HMBA-treated melanoma cells (FIG. 3); type: cell-based; conditions: SK-MEL-19, 5 mM HMBA for 5 days
[8] = SK-MEL-19, 5 mM HMBA, 2.5 nM CT, 10 ng/ml TPA or combinations, 6, 24 and 48 h

CC(=O)NCCCCCCNC(C)=O [HMBA, hexamethylene bisacetamide]
cell growth [1]: inhibits growth
TYRP1 mRNA expression [2, 8]: extinction of TYRP1 expression
cell cycle distribution [3]: accumulation of cells in G0/G1 phase with a significant decrease in population of cells in G2/M phase
terminal differentiation ([3]; mouse erythroleukemia cells (MEL) and a variety of human tumor cells): induce terminal differentiation
TYRP1 expression [4]: selective down-regulation
MAP-2 expression (MAP-2c mRNA) [5, 8]: up-regulation of MAP-2 expression was detected
expression of ~450 bp MAP-2 cDNA by differential display [6]: over expressed in treated cells; also recorded: generates an approximately 450 bp cDNA
cell morphology [7]: induction of dendritic morphology; also recorded: formation of dendrite-like structures

CCCCCCCCCCCCCC(=O)O[C@@H]1[C@@H](C)[C@@]2(O)[C@@H](C=C(CO)C[C@]3(O)C(=O)C(C)=C[C@@H]23)[C@@H]2C(C)(C)[C@]12OC(C)=O [TPA, 12-O-tetradecanoyl phorbol-13-acetate]
TYRP1 mRNA expression [2]: did not cause down-regulation of TYRP1 mRNA
MAP-2 expression (MAP-2c mRNA) [5]: did not induce MAP-2 expression; also recorded: does not change MAP-2 expression

cholera toxin [CT]
TYRP1 mRNA expression [2]: did not cause down-regulation of TYRP1 mRNA
MAP-2 expression (MAP-2c mRNA) [5]: did not induce MAP-2 expression; also recorded: does not change MAP-2 expression
